Consider one molecule from patent publication US20240343699A1, “DERIVATIVES OF SUBSTITUTED MORPHOLINES AND USES THEREOF” (Supernus Pharmaceuticals, Inc., priority 2023, published 2024).

“Also recorded” adds a separate entry of the source. Read-outs that look alike come from different tables or passages of the source.

The test system of one data set is sleep/wake and cataplexy. It counts as in vivo, male DTA mice.
Data set [1] can be described thus: Stability in human whole blood, red blood cells and plasma (with/without protease inhibitors, pH 6.0). The class given is in vitro ADME. On the procedure:
Stability of Test Articles at Different pH Values. 10 mM stock solutions of COMPOUND A were prepared in DMSO. From this stock solution, a single concentration in a 10 μL aliquot was added to three fluid matrices: SGF at pH 2.0 (gastric), SIF at pH 6.0 (upper intestine), and PBS at 7.4 (systemic). The final volume was 1 mL (0.1 mM). The preparations were then incubated at 37° C. and samples were collected at 0, 15, 30, 60, and 120 min for analysis of parent material by LC/MS/MS. The collected sample was quenched in acetonitrile/0.1% formic acid mixture. Red Blood Cell (RBC): Human and rat blood were centrifuged to separate out red blood cells at […] for 15 min. The upper plasma level was aspirated with a micropipette and placed in a bleach solution for disposal. The RBC pellet was resuspended in sterile isotonic saline. The pellet was gently resuspended by rocking the tube. The sample was then centrifuged again to collect the RBC pellet and then resuspended and washed one more time following the same procedure. A total of three was done. Following the last wash and centrifugation, the RBCs were resuspended with PBS; and mixed by inversion. Aliquots of the resuspended and washed RBCs were then placed into 4 reaction tubes. These tubes were centrifuged to collect the RBCs. The fluid level was marked on each tube, then the supernatant was aspirated off and the cells resuspended with room temperature PBS pH 7.4 to the original mark. An aliquot of the RBC suspension was added to four sterile tubes containing PBS pH 7.4 at room temperature.
Stability in Human and Rat Red Blood cells and Hemolysis. […] After centrifugation, 70 μL of supernatant (without disturbing the pellet) was transferred to a clean and clear polystyrene flat bottomed 96-well plate and the absorbance of the sample at a single wavelength was measured using a Bio Tech Synergy Hl Plate Reader at a wavelength of 410 nm. […] Stability was measured by measuring loss of parent compound using LC/MS/MS.

Data set [2] can be described thus: PK after single PO administration of COMPOUND A.
Setting [3] is: COMPOUND A 30, 90 and 120 mg/kg, first 6 h.
[4] abbreviates: COMPOUND A 90 and 120 mg/kg, ZT19-ZT24.
Where [5] appears, read: COMPOUND A 90 and 120 mg/kg, first 6 h.
The mark [6] stands for this setting: all concentrations of COMPOUND A, first 6 h.

As to `CCOc1ccccc1OC[C@@H]1CN(C(=O)OC(C)OC(=O)[C@@H](N)C(C)C)CCO1` (stereo partly shown) [COMPOUND A], in the data set on sleep/wake and cataplexy (COMPOUND A 30 mg/kg, ZT19-ZT24), the “W and NREM (hourly, cumulative and total time)” value is “W increased overall (treatment effect) and NREM decreased overall”. Further, the “C levels during ZT24” value in the data set with sleep/wake and cataplexy (COMPOUND A 120 mg/kg) is given as “approximately half of vehicle levels”. The “NREM (hourly, cumulative and total time)” value with sleep/wake and cataplexy (COMPOUND A 120 mg/kg, ZT19-ZT24) is reported as “NREM increased overall”. The “latency to REM” value with sleep/wake and cataplexy (COMPOUND A 10, 30, 90, 120 mg/kg p.o., first 6 h of dark period) is on record as “increased the latency to REM”. In the data set on sleep/wake and cataplexy (setting [3]), the “number of C bouts” value is given as “the number of C bouts decreased overall”, the “total NREM time” value was “total NREM time increased” and the “total time in C (cataplexy)” value is “total time in C decreased”. In addition, the “REM and C during the 6-h recording” value in the data set on sleep/wake and cataplexy (COMPOUND A 90 and 120 mg/kg) is “practically eliminated”. In the data set with sleep/wake and cataplexy (setting [4]), the “REM:NR ratios” value is “REM:NR ratios decreased” and the “latency to REM” value is given as “The latency to REM increased”. For the same molecule, in the data set on sleep/wake and cataplexy (setting [5]), the LMA entry was “LMA decreased overall” and the “Total W time” value was “Total W time decreased”. Also, the “C (cataplexy)” value in the data set on sleep/wake and cataplexy (COMPOUND A two highest concentrations, ZT19-ZT24) is on record as “significantly decreased”. In the data set with sleep/wake and cataplexy (setting [6]), the “NREM alpha, beta and high gamma EEG power” value is reported as “decreased overall”; the “total time in REM” value is reported as “decreased total time in REM”. Besides, the “REM:NR ratios” value with sleep/wake and cataplexy (all test conditions, first 6 h) is reported as “REM:NR ratios decreased”. In addition, in data set [1] (0-30 min), the “stability in human plasma at pH 6.0” value is “slower degradation compared to the other matrices” and the “stability in human plasma with protease inhibitor cocktail” value is listed as “time-dependent decrease in the amount of parent compound present”. Moreover, in data set [1] (0.5 mM, 0-120 min), the “stability in human red blood cells and whole blood” value is “time-dependent decrease in the amount of parent compound present”. Also, the “Clinical observation (tolerability)” value in data set [2] (60 or 120 mg/kg PO) is reported as “well tolerated”. Moreover, the “enantiomer R(+)-VLX in plasma” value in data set [2] (COMPOUND A 60 or 120 mg/kg PO, LLOQ 1.5 ng/mL) is recorded as “not detectable at most time points”. The “plasma concentration of the derivative itself” value in data set [2] (COMPOUND A 60 or 120 mg/kg PO, LLOQ 3 ng/mL) is listed as “not detectable; also recorded: below LLOQ in all the samples collected”.
